Series [1] has as its target mammalian mitochondrial complexes II–III (Bos taurus, UniProt P00157+P35720+Q3T189+Q95123). The experiment in a line: succinate-cytochrome c reductase (complexes II–III) activity assay. The series is classed as biochemical. The note with it: bovine heart mitochondria, range tested 0.0007 to 22.7 µM; read-out: IC50 Mammalian Mitochondrial CII–III. The protocol:
Bovine heart mitochondria were prepared as previously described. The NADH-cytochrome c reductase (complexes I–III) and succinate-cytochrome c reductase (complexes II–III) activities were assayed in 384-well plates following an established protocol with small modifications. Complex I–III activity was assayed in a reaction mix containing 50 mM phosphate buffer pH 7.4, 2 mM KCN, 200 µM cytochrome c (cytochrome c from horse heart, Nacalai tesque), and 15 µg/mL mitochondria. Plates containing 1 µL serial dilutions of PfDHODH inhibitors were prepared and mixed with 38 µL of the reaction mix, as described above. The reaction was started by the addition of 5 µL of 2.6 mM NADH, and the assay was performed as described for PfDHODH, but at 550 nm and with 15 min of incubation. Complex II–III activity was assayed similarly to complex I–III activity but with 100 µM cytochrome c and 25 µg/mL mitochondria, and the reaction was started by 10 mM succinate. For both assays, DMSO and 5 µM ascochlorin were used as negative and positive controls, respectively. Assays were performed in triplicate.

Series [2] relates to P. falciparum 3D7 strain expressing the cytosolic yeast DHODH (3D7-yDHODH). The experiment in a line: Confirmation assay against transgenic parasite 3D7-yDHODH. Format: cell-based, Plasmodium falciparum. The note with it: for activity at 10 µM: 72 h, relative parasite growth at 10 µM compound, read-out: Growth at 10 µM (%) Pf3D7-yDHODH; for susceptibility of Pf3D7-yDHODH parasite (in words): relative parasite growth at 10 µM, compared with wild-type 3D7. The protocol: Synchronized ring-stage parasites at 0.3% parasitemia and 2% hematocrit were cultured in a 384-well plate at 25 µL with test compounds at a final concentration in the range of 0.0003 to 10 µM with a fixed DMSO concentration of 0.4% (v/v). Parasite growth was monitored by the diaphorase-coupled P. falciparum lactate dehydrogenase (PfLDH) assay, as previously described. After 72 h, 70 µL of the assay solution (150 mM lithium L-lactate (Wako), 0.05 mg/mL 3-acetylpyridine adenine dinucleotide (Oriental Yeast Co., Ltd., Tokyo, Japan), 0.2 mg/mL nitro blue tetrazolium (Wako), 1 unit/mL diaphorase, and 100 mM Tris-HCl pH 8.0) were mixed with the parasite culture and incubated at room temperature for 40 min, and the generated nitro blue formazan was measured at 650 nm using a SpectraMax®® Paradigm®® Multi-Mode Microplate Reader. […] The EC50 was calculated using GraphPad Prism 8.0 software from the mean of quadruplets values.
The P. falciparum 3D7 strain expressing the cytosolic yeast DHODH (3D7-yDHODH) was prepared as follows. pHHyDHODH-GFP plasmid (Kerafast, Boston, MA, USA) was transfected to the P. falciparum 3D7 strain following the established transfection method. Briefly, 50 µg of plasmid dissolved in cytomix solution (120 mM KCl, 0.15 mM CaCl2, 10 mM K2HPO4/KH2PO4 pH 7.6, 25 mM HEPES-KOH pH 7.6, 2 mM ethylene glycol-bis(β-aminoethyl ether)-N,N,N′,N′-tetraacetic acid (EGTA, Dojindo), and 5 mM magnesium chloride (Wako)) was transfected into the red blood cells by the Gene Pulser Xcell (Bio-Rad). Percoll–sorbitol synchronized parasites were mixed with red blood cells containing plasmid and maintained under 5 nM WR99210 for 2 weeks. The growth of resistant parasites against DSM265 and atovaquone, as PfDHODH and complex III inhibitors respectively, was confirmed by PfLDH/diaphorase assay. A total of 10 µM PfDHODH inhibitors were tested against wild-type 3D7 and 3D7-yDHODH following the method described above in triplicate. The significance of difference between the inhibition of the two parasite strains was evaluated by Student’s t-test (Figure S4).

Series [3] in a line: Cytotoxicity assay, PANC-1 (Cell Counting Kit-8). The series is classed as cell-based. The note with it: PANC-1 human pancreatic carcinoma cells. The protocol:
(§1) Human dermal fibroblast cells (HDF, Zenbio, Inc., Durham, NC, USA) were cultured in Dulbecco’s Modified Eagle Medium/Nutrient Mixture F-12 medium (DMEM/F12, Gibco), human pancreatic carcinoma cells (PANC-1, DS Pharma Biomedical, Co., Ltd.) were cultured in DMEM (Gibco), and human colorectal adenocarcinoma cells (DLD-1, Taiho Pharmaceutical Company) were cultured in RPMI-1640 medium (FUJIFILM Wako Pure Chemicals). The culture mediums were supplemented with 10% (v/v) heat-inactivated fetal bovine serum (Gibco) and the cells were maintained at 37 °C under 5% CO2.
(§2) HDF, PANC-1, and DLD-1 were seeded at 2.5 × 10^4 cells/well on a 96-well plate and incubated at 37 °C under 5% CO2 overnight. The cells were then washed with PBS and the medium was replaced with 99 µL of fresh media. Then, 1 µL of the compounds or DMSO was added to the respective wells. As controls, wells containing 1% (v/v) DMSO in column 1 and wells containing only the culture medium in column 12 were used as the negative and positive controls, respectively. After 48 h of incubation, the cells were washed with PBS, and 99 µL of fresh media was replaced, followed by the addition of 10 µL of Cell Counting Kit-8 (Dojindo) to each well. After 3 h of incubation, the absorbance was measured at 450 nm using a SpectraMax®® Paradigm®® Multi-Mode microplate Reader. The calculation of cell viability in the test well was based on the absorbance of control wells according to the manufacturer’s protocol. The mean of quadruplet values was used to calculate the CC50 using GraphPad Prism 8.0 software.

A further series has as its target T1, HsDHODH (Homo sapiens, UniProt Q02127).
T1 construct: made in house
The experiment in a line: HsDHODH counter-assay. The series is classed as biochemical. To be noted: purified recombinant HsDHODH, tested at 4.5 µM; read-out: IC50 DHODH Hs. The protocol: Selected hit compounds from PfDHODH screening were tested for potential inhibition against HsDHODH at 4.5 µM. The HsDHODH used in this study was purified as previously reported. The HsDHODH assay was performed similarly to that for PfDHODH, but in an assay mix consisting of 50 mM Tris-HCl pH 8.0, 0.1% (v/v) Triton X-100, 2 mM potassium cyanide (KCN, Wako), 60 µM dUQ, and 120 µM DCIP, with the reaction started by the addition of 200 µM L-DHO (final concentration) in triplicate. For this assay, DMSO was used as a negative control and 10 µM of lapachol was used as a positive control (100% inhibition). The relative inhibition was calculated as described above.

The nature of series [4]: Cytotoxicity assay, DLD-1 (Cell Counting Kit-8). Format: cell-based. The note with it: DLD-1 human colorectal adenocarcinoma cells. The protocol: as §1, §2
Series [5] can be described thus: Cytotoxicity assay, HDF (Cell Counting Kit-8). Format: cell-based. To be noted: human dermal fibroblast (HDF) cells, normal human dermal fibroblasts. The protocol: as §1, §2
In general terms: Tetrazolium dyes change colour on reduction, which living cells bring about.

T1 sequence (Q02127 whole entry): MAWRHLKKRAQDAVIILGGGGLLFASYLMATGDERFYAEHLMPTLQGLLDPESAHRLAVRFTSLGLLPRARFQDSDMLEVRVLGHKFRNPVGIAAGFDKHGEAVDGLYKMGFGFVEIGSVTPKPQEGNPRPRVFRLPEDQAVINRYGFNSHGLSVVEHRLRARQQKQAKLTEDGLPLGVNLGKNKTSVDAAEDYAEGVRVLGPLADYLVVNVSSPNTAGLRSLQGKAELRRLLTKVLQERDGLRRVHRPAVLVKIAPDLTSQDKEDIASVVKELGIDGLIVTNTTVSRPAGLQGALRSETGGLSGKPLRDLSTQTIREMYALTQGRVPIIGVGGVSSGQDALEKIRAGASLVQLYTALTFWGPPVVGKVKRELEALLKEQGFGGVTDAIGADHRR

On to `CCc1cccc(-c2ccc3c(c2)SC(=N)N2CCCN=C32)c1` [Compound 25], for which the figures for the IC50 (in series [1]; at HsDHODH) were > 22.7 µM and > 4.5 µM, respectively. For the same compound, in series [2], the activity at 10 µM was 0.01 ± 0.15%. For the same compound, the EC50 at 48 h in series [3], in series [4] and in series [5] was > 10 µM each time.

As for `N=C1Sc2cc(-c3ccc(OC(F)(F)F)cc3)ccc2C2=NCCCN12` [Compound 18], the half-maximal inhibitory concentration (IC50) – broadly, the concentration that gives 50% inhibition – is > 22.7 µM in series [1] and > 4.5 µM on HsDHODH. Moreover, the activity at 10 µM in series [2] was determined as 2.54 ± 0.42%. Besides, the concentration for a half-maximal effect (EC50) at 48 h in series [3], in series [4] and in series [5] was > 10 µM each time.

Turning to `N=C1Sc2cc(/C=C/c3ccccc3)ccc2C2=NCCCN12` [Compound 8], the IC50 in series [1] is > 22.7 µM; on HsDHODH it was > 4.5 µM. Further, the activity at 10 µM in series [2] amounted to 0.12 ± 0.21%. Besides, the EC50 at 48 h in series [3], in series [4] and in series [5] was > 10 µM in each case.

Regarding `N=C1Sc2cc(-c3ccccc3)ccc2C2=NCCCN12` [Compound 12], the concentration for half-maximal inhibition (IC50) in series [1] was > 22.7 µM; at HsDHODH it was > 4.5 µM. Also, the activity at 10 µM in series [2] is -0.22 ± 0.12%. The concentration for a half-maximal effect (EC50) at 48 h in series [3], in series [4] and in series [5] was > 10 µM in each case.

As to `COc1ccccc1-c1ccc2c(c1)SN1CCCN=C21` [Compound 42], the IC50 in series [1] is > 22.7 µM; at HsDHODH, > 4.5 µM. Moreover, the activity at 10 µM in series [2] is 0.04 ± 0.15%. The figures for the EC50 at 48 h in series [3], in series [4] and in series [5] were > 10 µM, > 10 µM and 9.77 µM, respectively.

In the case of `N#Cc1ccc(-c2ccc3c(c2)SC(=N)N2CCCN=C32)cc1` [Compound 14], the IC50 in series [1] was > 22.7 µM; at HsDHODH, > 4.5 µM. Also, the activity at 10 µM in series [2] was 105 ± 0.47%. The “susceptibility of Pf3D7-yDHODH parasite (in words)” value (“susceptibility” below) in series [2] was “reduced susceptibility”. The EC50 at 48 h in series [3], in series [4] and in series [5] was > 10 µM in each case.

In the case of `N=C1Sc2cc(-c3ccc4c(C(=O)OC(F)(F)F)c[nH]c4c3)ccc2C2=NCCCN12` [Compound 6], the results for the IC50 (in series [1]; at HsDHODH) were > 22.7 µM and > 4.5 µM, respectively. For the same compound, the activity at 10 µM in series [2] was found to be 104.4 ± 0.11%. Besides, the “susceptibility” value in series [2] is given as “reduced susceptibility”. In addition, the EC50 at 48 h in series [3], in series [4] and in series [5] was > 10 µM throughout.

With `C#CCOCc1ccc(C(=O)c2ccc(-c3ccc4c(c3)SC(=N)N3CCCN=C43)cc2)cc1` [Compound 20], the values for the half-maximal inhibitory concentration (IC50) (in series [1]; on HsDHODH) were > 22.7 µM and > 4.5 µM, respectively. For the same compound, the activity at 10 µM in series [2] amounted to 0.45 ± 0.74%. Also, the concentration giving a half-maximal response (EC50) at 48 h in series [3], in series [4] and in series [5] was > 10 µM throughout.

Take `CC(C)Oc1cccc(-c2ccc3c(c2)SC(=N)N2CCCN=C32)c1` [Compound 22]: the values for the IC50 (in series [1]; on HsDHODH) were > 22.7 µM and > 4.5 µM, respectively. Moreover, the activity at 10 µM in series [2] is -0.06 ± 0.24%. Besides, the EC50 at 48 h in series [3], in series [4] and in series [5] was > 10 µM each time.

For the compound `N=C1Sc2cc(-c3ccc4ccccc4c3)ccc2C2=NCCCN12` [Compound 1], the 50% inhibitory concentration (IC50) in series [1] is > 22.7 µM; at HsDHODH it was > 4.5 µM. Besides, the activity at 10 µM in series [2] is -0.62 ± 0.07%. In addition, the EC50 at 48 h in series [3], in series [4] and in series [5] was > 10 µM in each case.

As for `N=C1Sc2cc(-c3ccc4c(c3)OCO4)ccc2C2=NCCCN12` [Compound 3], the IC50 is > 22.7 µM in series [1] and > 4.5 µM at HsDHODH. In series [2], the activity at 10 µM is -0.23 ± 0.01%. Further, the EC50 at 48 h in series [3], in series [4] and in series [5] was > 10 µM in each case.

Consider `c1ccc2c(-c3ccc4c(c3)SN3CCCN=C43)cccc2c1` [Compound 31], for which the IC50 in series [1] is > 22.7 µM; on HsDHODH it was > 4.5 µM. For the same compound, in series [2], the activity at 10 µM was 0%. Also, the EC50 at 48 h in series [3], in series [4] and in series [5] was > 10 µM throughout.

For the compound `N=C1Sc2cc(-c3ccccc3-c3ccccc3)ccc2C2=NCCCN12` [Compound 27], the results for the half-inhibitory concentration (IC50) (in series [1]; on HsDHODH) were > 22.7 µM and > 4.5 µM, respectively. For the same compound, in series [2], the activity at 10 µM was 0.25 ± 0.04%. Besides, the EC50 at 48 h in series [3], in series [4] and in series [5] was > 10 µM throughout.

`N=C1Sc2cc(-c3ccc(C(=O)c4ccccc4)cc3)ccc2C2=NCCCN12` [Compound 19]: the IC50 is > 22.7 µM in series [1] and > 4.5 µM on HsDHODH. The activity at 10 µM in series [2] is 68.6 ± 0.43%. Moreover, the “susceptibility” value in series [2] is recorded as “reduced susceptibility”. For the same compound, the concentration for a half-maximal effect (EC50) at 48 h in series [3], in series [4] and in series [5] was > 10 µM each time.

As for `N=C1Sc2cc(-c3ccc4c(c3)OCCO4)ccc2C2=NCCCN12` [Compound 4], the IC50 is > 22.7 µM in series [1] and > 4.5 µM at HsDHODH. In series [2], the activity at 10 µM stood at 24 ± 5.76%. Further, the EC50 at 48 h in series [3], in series [4] and in series [5] was > 10 µM throughout.

`CC(C)(C)N=C1Sc2cc(-c3cc4ccccc4s3)ccc2C2=NCCCN12` [Compound 10]: the IC50 is > 22.7 µM in series [1] and > 4.5 µM on HsDHODH. In addition, the activity at 10 µM in series [2] is -0.48 ± 0.07%. For the same compound, the EC50 at 48 h in series [3], in series [4] and in series [5] was > 10 µM each time.
